This note sets out measurements from patent publication US11033596B2, “Antioxidant, anti-inflammatory compositions and uses thereof” (Malaysian Palm Oil Board, priority 2017, dated 2021).

One assay has as its system RAW macrophages. Description: Cell-based NO2- scavenging activity (Griess assay, RAW macrophages). The note with it: for Actual % inhibition of ROS / % inhibition of ROS in comparison to Oil Palm phenolics (± S.E): Table 2; for Actual % inhibition of ROS: each component added at the concentration present in 800 μg/mL OPP; for % inhibition of ROS in comparison to Oil Palm phenolics (± S.E): relative to OPP 800 μg/mL = 100; for Enhancement of anti-inflammatory and anti-oxidative activity of other components / Inhibitory action / nitrite scavenging activity (in words): cell-based Griess assay. Here is the method: FIG. 1 is a graphical representation of the biological enhancement of chemical combination of major compounds of Oil Palm phenolics in cell-based NO2^− scavenging activity (Griess assay, RAW macrophages, Mean±SE).
FIG. 1 and Table 2 show the synergistic effect of the composition in cell based nitrite scavenging activity.
For the study, PH435 composition was prepared according to the concentration present in 800 μg/mL of Oil Palm Phenolics.
Background: Nitrite, measured by Griess reagent, commonly stands in for NO production.

Assay [1] is described as follows: Nitrite measurement (sodium nitroprusside, SNP assay), chemical system. The note with it: for Inhibition of the nitrite ion (in words): chemical system. The text has this: Nitrite Measurement (Sodium Nitroprusside—SNP Assay)
SNP in aqueous solution at physiological pH spontaneously generates nitric oxide, which interacts with oxygen to produce a nitrite ion that can be estimated by using griess reagent.

A further assay has as its system Red blood cells. In words: Cell-based antioxidant protection in erythrocytes (CAP-e assay), ROS scavenging. The note with it: for Effect on reducing ROS / inhibitory action (in words): RBC cells; for Actual % inhibition of ROS: each component added at the concentration present in 10 mg/mL OPP; for % inhibition of ROS in comparison to Oil Palm phenolics (±S.E.): relative to OPP 10 mg/mL = 100. The text has this: H2O2 Measurement (Cell-Based Antioxidant Protection in Erythrocytes CAP-e Assay)
Red blood cells can be used as a cellular model to quantify reactive oxygen species (ROS). As these cells lose their nuclei at the erythroblast stage, they cannot perform transcription and translation for bringing about genetic and protein level changes.

Assay [2] can be described thus: Chemical-based ORAC assay.
The subject of assay [3] is Granulocytes/polymorphonuclear (PMN) cells. In words: H2O2 measurement, cell-based antioxidant protection in granulocytes/polymorphonuclear (PMN) cells assay. The text has this:
H2O2 Measurement (Cell-Based Antioxidant Protection in Granulocytesipolymorphonuclear—PMN Cells Assay)

For `O=C(/C=C/c1ccc(O)c(O)c1)O[C@@H]1C=C(C(=O)O)C[C@@H](O)[C@@H]1O` [3-Caffeoylshikimic acid, 3-caffeoylshikimic acid], in the assay on RAW macrophages, the “Actual % inhibition of ROS” value was determined as 12.3% and the “% inhibition of ROS in comparison to Oil Palm phenolics (± S.E)” value (“% inhibition of ROS in comparison … (± S.E)” below) is 18.6(±2.3) %.

For the compound `O=C(O)C1=CC(=O)[C@@H](O)[C@H](O)C1` [3-dehydroshikimic acid], the “Inhibition of the nitrite ion (in words)” value in assay [1] is “low inhibition”. The “Inhibition of the nitrite ion (in words)” value in assay [1] (listed as 3-dehydroshikirnic acid) is given as “shows inhibitory action”. In addition, in the assay with Red blood cells, the “Effect on reducing ROS / inhibitory action (in words)” value is “shows inhibitory action”, the “Actual % inhibition of ROS” value amounted to 9.9% and the “% inhibition of ROS in comparison to Oil Palm phenolics (±S.E.)” value (“% inhibition of ROS in comparison … (±S.E.)” below) is listed as 13.4 (±0.05) %. Besides, in the assay with Red blood cells (chemical combination versus mathematical sum), the “Synergy / enhancement effect of the combination on ROS inhibition” value is listed as “enhancement effect could be seen”. In the assay on RAW macrophages, the “Enhancement of anti-inflammatory and anti-oxidative activity of other components” value (from here on “Enhancement … of other components”) is given as “enhancement effect could be seen”; the “Inhibitory action / nitrite scavenging activity (in words)” value was “shows inhibitory action”. Besides, the Enhancement effect entry in assay [2] is “enhancement effect could be seen”.

With `O=C(/C=C/c1ccc(O)c(O)c1)O[C@@H]1[C@H](O)C=C(C(=O)O)C[C@H]1O` [4-Caffeoylshikimic acid, 4-caffeoylshikimic acid], in the assay on RAW macrophages, the “Actual % inhibition of ROS” value is given as 8.4% and the “% inhibition of ROS in comparison … (± S.E)” value is listed as 12.7(±2.5) %.

In the case of `O=C(/C=C/c1ccc(O)c(O)c1)O[C@@H]1CC(C(=O)O)=C[C@@H](O)[C@H]1O` [5-Caffeoylshikimic acid, 5-caffeoylshikimic acid], in the assay on RAW macrophages, the “Actual % inhibition of ROS” value came out at 8.8% and the “% inhibition of ROS in comparison … (± S.E)” value is given as 13.4(±3.7) %.

Take `O=C(O)c1ccc(O)c(O)c1` [Protocatechuic acid]: in the assay on RAW macrophages, the “Actual % inhibition of ROS” value was 8.6% and the “% inhibition of ROS in comparison … (± S.E)” value is 13 (±0.7) %.

For the compound `O=C(O)C1=C[C@@H](O)[C@@H](O)[C@H](O)C1` [Shikimic acid], the “Enhancement of nitrite inhibition when added with other components” value in assay [1] (added along with p-hydroxybenzoic acid) is given as “does not show any enhancement”. In assay [1], the “Inhibition of the nitrite ion (in words)” value is reported as “shows inhibitory action”. Moreover, in assay [1] (listed as shikimic acid), the “Inhibition of the nitrite ion (in words)” value is “low inhibition”. For the same compound, in the assay on Red blood cells, the “Effect on reducing ROS / inhibitory action (in words)” value is “shows no activity”, the “Actual % inhibition of ROS” value is recorded as “-Not detected-” and the “% inhibition of ROS in comparison … (±S.E.)” value was “-Not detected-”. The “Effect on reducing ROS / inhibitory action (in words)” value in the assay on Red blood cells (listed as shikimic acid) was “does not show any effect”. In the assay with RAW macrophages, the “Actual % inhibition of ROS” value was found to be 3.4%; the “% inhibition of ROS in comparison … (± S.E)” value is 5.2 (±0.7) %; the “Enhancement … of other components” value is given as “able to enhance”; the “Inhibitory action / nitrite scavenging activity (in words)” value was “shows inhibitory action”. Further, in assay [3], the “Enhancement … of other components” value was “able to enhance”; the “Inhibitory action (in words)” value is given as “shows inhibitory action”.

As to `O=C(O)c1ccc(O)cc1` [p-hydoxybenzoic acid], in the assay on Red blood cells, the “Actual % inhibition of ROS” value was found to be 22.5% and the “% inhibition of ROS in comparison … (±S.E.)” value was 30.6 (±0.2) %. In the assay with RAW macrophages, the “Actual % inhibition of ROS” value is recorded as 11.4% and the “% inhibition of ROS in comparison … (± S.E)” value is reported as 17.3(±2.8) %.

Consider caffeoylshikimic acid, for which, in the assay on Red blood cells, the “Actual % inhibition of ROS” value is listed as 25.9% and the “% inhibition of ROS in comparison … (±S.E.)” value is 35.2(±0.1) %.
